“Also recorded” adds a separate entry of the source.
Tests used:
CMKRL1 [1] = target: T1, CMKRL1 (Homo sapiens, UniProt Q15722); test: Intracellular calcium (Fura-2) in CHO cells stably expressing CMKRL1; assay type: cell-based; details: 1000 nM LTB4
T1 construct: A full-length cDNA (Lyme21-9) encoding a novel putative seven-transmembrane (7TM) domain receptor, named CMKRL1; expressed in transfected cells
Protocol: (§1) Intact plasmid DNA (10-25 μg) of the cDNA clone, Lyme21-9 (1), was transfected using the calcium phosphate precipitation method. Chinese hamster ovary cells (CHO-K1) were used to establish stable expression of the corresponding receptor, CMKRL1. The pCDneo vector was co-transfected to allow for selection with G-418)Geneticin, 500 μg/ml). Single resistant colonies were isolated to obtain homogenous cell lines, and appropriate expression of the corresponding mRNA were verified by Northern blot hybridization with cDNA probes. SV40 transformed African green monkey kidney cells (COS-7) were used for transient expression. These cells were harvested after 48 hrs for preparation and isolation of membranes. Sham-transfected cells were used as controls throughout. […]
Agonists were added in 50 μl of extracellular medium buffer and mixed thoroughly with the original contents of the well. Fluorescence images were obtained by alternate excitation at 340 and 380 nm, and the emitted light was measured at 510 nm. The software configuration allowed for storage of fluorescence information from groups of cells, which could then be analyzed separately. Intracellular calcium concentrations were calibrated using the method described by William and Fay (5) and calculated from the aforementioned radiometric images using the mathematical relationship described by Grynkiewicz et al. (6). […]

[2] = tested on: sham-transfected control cells; test: Intracellular calcium (Fura-2) in sham-transfected CHO control cells; assay type: cell-based, Chinese hamster; details: any dose level, shown for 1000 nM
Protocol: as §1, with “expression.” for “expression. These cells were harvested after 48 hrs for preparation and isolation of membranes. Sham-transfected cells were used as controls throughout.”
Transfected cells were seeded into 96-well plates (Corning-Costar) by dissociating confluent cultures using PBS containing 2 mM EDTA, diluting the resulting suspension 20×, and adding 50 μl per well. […] After 3 washes in extracellular medium buffer (135 mM NaCl, 4.6 mM KCl, 1.2 MM MgCl2, 1.5 mM CaCl2, 11 mM glucose, 11 mM Hepes, pH 7.4), the plates were mounted on the stage of a Nikon inverted fluorescence microscope attached to an SIT-camera and an image analysis system (Photon Technology International). […]
Agonists were added in 50 μl of extracellular medium buffer and mixed thoroughly with the original contents of the well. Fluorescence images were obtained by alternate excitation at 340 and 380 nm, and the emitted light was measured at 510 nm. […]

[3] = tested on: sham-transfected COS-7 cells; test: [3H]LTB4 binding to membranes from sham-transfected COS-7 cells; design: species or system African green monkey
Protocol: (§2) Intact plasmid DNA (10-25 μg) of the cDNA clone, Lyme21-9 (1), was transfected using the calcium phosphate precipitation method. Chinese hamster ovary cells (CHO-K1) were used to establish stable expression of the corresponding receptor, CMKRL1. The pCDneo vector was co-transfected to allow for selection with G-418)Geneticin, 500 μg/ml). Single resistant colonies were isolated to obtain homogenous cell lines, and appropriate expression of the corresponding mRNA were verified by Northern blot hybridization with cDNA probes. SV40 transformed African green monkey kidney cells (COS-7) were used for transient expression. These cells were harvested after 48 hrs for preparation and isolation of membranes. Sham-transfected cells were used as controls throughout.
The transiently transfected COS-7 cells were washed with PBS, which was replaced with 50 mM TRIS/HCl buffer (pH 7.4) containing 1 mM EGTA and 5 mM MgCl2, and scraped off. After homogenization for 20 sec in a Polytron homogenizer (Brinkmann, setting 5.5) the material was centrifuged at 20,000 rpm for 30 min at 4° C., followed by washing through homogenization in the TRIS binding buffer and subsequent recentrifugation, which was repeated twice. The pellet was finally resuspended by homogenization and stored in liquid nitrogen until used. […]

CMKRL1 [4] = target: T1, CMKRL1; test: [3H]LTB4 saturation binding to membranes from COS-7 cells transiently transfected with Lyme21-9 cDNA; details: for Bmax: Scatchard analysis, COS-7 membranes, 4° C.; for binding sites identified: saturation binding, linear Scatchard plot
Protocol: as §2
The transiently transfected COS-7 cells were washed with PBS, which was replaced with 50 mM TRIS/HCl buffer (pH 7.4) containing 1 mM EGTA and 5 mM MgCl2, and scraped off. After homogenization for 20 sec in a Polytron homogenizer (Brinkmann, setting 5.5) the material was centrifuged at 20,000 rpm for 30 min at 4° C., followed by washing through homogenization in the TRIS binding buffer and subsequent recentrifugation, which was repeated twice. The pellet was finally resuspended by homogenization and stored in liquid nitrogen until used. For the binding studies, membrane material corresponding to 30 μg protein ([…]) was blended with ice-cold binding buffer (0.02 M Hepes buffer containing 10 mM CaCl2 and MgCl2) to a final volume of 70 μl and added to wells in a 96-well polypropylene plate. […] Each data point is the result of the mean of triplicate wells from three separate experiments, which have in turn been averaged.

T1 sequence (Q15722 whole entry): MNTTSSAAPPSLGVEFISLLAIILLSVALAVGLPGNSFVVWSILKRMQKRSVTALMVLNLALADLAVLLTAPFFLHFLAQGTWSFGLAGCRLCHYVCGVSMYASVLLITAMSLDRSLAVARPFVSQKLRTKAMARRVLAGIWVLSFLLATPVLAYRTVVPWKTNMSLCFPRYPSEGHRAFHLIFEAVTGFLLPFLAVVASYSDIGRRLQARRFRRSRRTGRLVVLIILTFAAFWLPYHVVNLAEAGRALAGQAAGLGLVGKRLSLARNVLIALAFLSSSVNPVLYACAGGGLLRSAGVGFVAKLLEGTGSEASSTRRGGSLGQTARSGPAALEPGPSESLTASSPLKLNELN

SMILES | increase in intracellular calcium in calcium-free medium (CMKRL1 [1]) | effect on intracellular calcium in sham-transfected control cells [2] | specific binding [3] | Bmax (CMKRL1 [4]) | Bmax (CMKRL1 [4]; listed as tritiated LTB4) | Non-specific binding as share of the total binding (CMKRL1 [4]; binding of tritiated ligand in the presence of 1 μM non-labelled ligand) | binding sites identified (CMKRL1 [4]) | binding sites identified (CMKRL1 [4]; listed as tritiated LTB4)
CCCCC/C=C\C[C@@H](O)/C=C/C=C/C=C\[C@@H](O)CCCC(=O)O [LTB4, leukotriene B4] | no longer included any significant increase; also recorded: No response | completely without effect; also recorded: No response; also recorded: No binding or activation | No binding | – | – | – | – | –
CCCCC/C=C\C[C@@H](O)/C=C/C=C\C=C\[C@@H](O)CCCC(=O)O [[^3H]LTB4] | – | – | no specific binding | 17.0 ± 2.0 pmoles/mg protein | 17.0 pmoles/mg protein | less than 15% | single class of high-affinity binding sites | binds with high affinity to a single receptor population
